In patent US11717635B2, “Argon combined with thrombectomy in the event of ischaemic stroke” (L'Air Liquide, Société Anonyme pour l'Etude et …, priority 2019, dated 2023):

Test system: transient focal cerebral ischaemia (occlusion of the middle cerebral artery)
Test: Transient focal cerebral ischaemia (microcoil occlusion of the right MCA, 90 min, then reperfusion mimicking mechanical thrombectomy) with MRI and behavioural follow-up
Type: in vivo, rhesus macaques
Description: The primates used in the study are rhesus macaques, in which it has been possible to obtain a stable and reproducible model of reversible ischaemia mimicking an ischaemic stroke and its reperfusion by mechanical thrombectomy, as explained below. After approval of the project by the ethics committee for animal experimentation, 6 rhesus macaques were randomized in 2 groups of 3 animals per group, namely: • a group treated with argon or “argon group” inhaling, for 90 min in total, a binary gas mixture formed of 60% argon and 40% oxygen (vol. %), the inhalation of the gas beginning 30 min after the start of the ischaemia and extending during and after the thrombectomy procedure (with or without thrombolysis); • a “control group” inhaling a gas mixture formed of 60% nitrogen and 40% oxygen (vol. %). These groups are subjected to a model of transient focal cerebral ischaemia without craniectomy consisting of an occlusion under anaesthesia of the middle cerebral artery (MCA) by deploying a rigid microspring, called a “microcoil”, until the arterial blood flow stops, in the M2 segment of the right MCA. After 90 min of ischaemia, which is the usual average time between the first signs of an ischaemic stroke and the cerebral reperfusion, the “microcoil” was removed and the revascularization confirmed by arteriography. This procedure mimics a blood clot and its removal by mechanical thrombectomy. All the animals are monitored by high-resolution MRI (Prisma 3 Tesla, Siemens) several days before and directly after the ischaemia (3[…], TOF) in order to quantify the cerebral volume made ischaemic (i.e. restriction of the apparent diffusion coefficient) and the cerebral oedema ([…]). Moreover, the functional recovery was monitored in the acute phase in 1 control animal and over the long-term in two animals of the argon group, that is to say over the course of 3 months post-ischaemia. The evaluations were carried out in terms of the clinical and functional neurological recovery with behavioural tests evaluating their fine sensory-motor performances.

[Ar] [argon]
lesion volume (argon group (60% argon/40% oxygen, 90 min), control group about 5 ml): about 1 ml | performances in the behavioural tests (fine sensory-motor) post-ischaemia compared with baseline (argon group animals monitored 3 months post-ischaemia): not significantly impaired | blood-brain barrier state on MRI images (argon group, rupture observed in the control group): preserved | decrease in the volume of cerebral oedema compared to the control group (inhaled 60% argon/40% oxygen for 90 min, begun 30 min after start of ischaemia, MRI T2-FLAIR, P<0.05 vs control): 85 % reduction | decrease in the cerebral volume infarcted compared to the control group (inhaled 60% argon/40% oxygen for 90 min, begun 30 min after start of ischaemia, MRI, P<0.05 vs 60% nitrogen/40% oxygen control): 83 % reduction | clinical and functional neurological recovery (two animals of the argon group monitored 3 months post-ischaemia, deficit = left leg paresis): rapid recovery with only a minor and transient neurological deficit
